Patent US20260055118A1, “VISIBLE LIGHT SENSITIVE PHOTOREMOVABLE PROTECTING GROUPS, PREPARATION PROCESS THEREOF, PHOTOACTIVATABLE CONJUGATES COMPRISING THEM AND USES THEREOF” (HUN-REN TERMÉSZETTUDOMÁNYI KUTATÓKÖZPONT, priority 2022, published 2026)

Legend:
Assay type in all cases: physicochemical
[1] = Uncaging experiments, LED irradiation followed by HPLC-UV-MS
Description: (§1) The uncaging experiments were performed using green (4 W input power, λmax=549 nm half-width: 16 nm, output power: 72 mW), orange (4 W input power, λmax=605 nm half-width: 10 nm, output power: 140 mW) and red (4 W input power, λmax=658 nm half-width: 10 nm, output power: 210 mW) LEDs as light source. Sample solutions were prepared, each containing 1 ml of solvent (90% v/v water-MeCN or 90% PBS-MeCN or 100% methanol for the photochemical quantum yield determination) and 0.1 mM or 0.05 mM concentration of the photoactivatable conjugates. The samples were irradiated for a given time using continuous water cooling for the light source. Then, the samples were transferred to the HPLC-UV-MS system and the chromatograms were recorded. The traces at 195 nm, 254 nm or 369 nm (dependent on the cargo moieties) and at the absorption maxima of the photoremovable protecting groups (530 nm, 570 nm or 640 nm) were compared and the corresponding peaks were integrated and compared to reference calibration sets. The possible photoproducts were identified by their corresponding m/z value and also from the UV/VIS spectra from the DAD-equipped instrument. For the dark stability experiments, the HPLC sample solutions were kept in the dark and chromatograms were recorded multiple times.
The photouncaging was evaluated by HPLC-MS using green (4 W input power, λmax=549 nm half-width: 16 nm, output power: 72 mW), orange (4 W input power, λmax=605 nm half-width: 10 nm, output power: 140 mW) and red (4 W input power, λmax=658 nm half-width: 10 nm, for Q=CMe2 output power: 210 mW) LED irradiation. For all compounds the experiments were performed in 90% water/MeCN mixtures as well as in 90% PBS/MeCN (0.1 mM concentration). In all cases, the irradiation led to the release of the model active agents with significant differences based on the photoremovable protecting group, cargo unit and the connecting chemical moiety as well as on the water content of the uncaging medium. Comparing the green light absorbing target conjugates, irradiation of 39 led to the release of 54% phenylacetic acid in 60 s (FIG. 6b), while 180 s (for 50%) was required for the same result in case of 41. Approximately 65% of phenylacetic acid was released after 180 s of irradiation with orange light from model target conjugate 41 (FIG. 6a). The current state of the art BODIPY derivative (for the structure, see the next section),^20,21 released only 12% phenylacetic acid after irradiation for 1800 s. Contrary to the general expectations that increasing the wavelength diminishes photolysis rates, the uncaging of the redshifted Q=CMe2 derivative 43 was also very effective, reaching >70% release of phenylacetic acid in 120 s after red light irradiation (FIG. 6c). The high efficiency of 43 as a red light-activatable photoremovable protecting group was also compared to a π-extended BODIPY derivative (substrate 7 in REF^21, using methanol as the solvent in a concentration of 0.1 mM), the current state of the art in this region of visible light.
Importantly, except in the case of compounds wherein the connecting chemical moiety was a carbonate moiety (i.e., compound 51, FIG. 6f), the target conjugates were stable in water as well as in PBS for 24 hours in the dark. The stability and uncaging rates of several leaving groups was also assessed. Comparing the most important functional groups (carboxylic acid, amine, phenol, alcohol) in potential active agents connected via the typical linkages in the target conjugates, the carbonate bond was the most labile (compound 51, >70% decomposition in 30 s with red light at 50% power) although the long-term dark stability was poor. None of the other model active agents were released in significant quantities, however, after 24-28 hours in the dark (for dark stability data see FIGS. 6a-6h, right side).
Using HPLC-MS, not only the appearance of the released model active agents could be monitored but also the products of photolysis were detectable. […]

[2] = Spectroscopic properties of the target conjugates in PBS; settings: for ε (molar absorption coefficient): at the absorption maximum
Description: All starting materials were obtained from commercial suppliers and used without further purification. Analytical thin-layer chromatography (TLC) was performed on silica gel 60 F254 precoated aluminum TLC plates from Merck. Flash column chromatography was performed on Teledyne Isco CombiFlash® Rf+ automated flash chromatographer with silica gel (25-40 μm) from Zeochem. NMR spectra were recorded on a Varian Inova 500 MHz spectrometer. Chemical shifts (δ) are given in parts per million (ppm) using solvent signals or TMS as the reference. Coupling constants (J) are reported in Hertz (Hz). Analytical RP-HPLC-UV/Vis-MS measurements were employed using a Shimadzu LCMS-2020 instrument applying a Gemini C18 column (100×2.00 mm I.D.) in which the stationary phase is […] with a pore size of 110 Å. The chromatograms were detected by a UV-Vis diode array (190-800 nm) and an ESI-MS detector. The following linear gradient elution profile was applied, 0 min 0% B; 6.5 min 100% B; 7 min 0% B; 8 min. 0% B) with eluent A (2% HCOOH, 5% MeCN and 93% water) and B (2% HCOOH, 80% MeCN and 18% water) at a flow rate of 1.0 mL min-1 at 30° C. The samples were dissolved in MeCN—water mixtures. Spectroscopic measurements were performed on a Jasco FP 8300 spectrofluorometer. Quartz cuvettes with path length of 1 cm were used.
The spectroscopic properties of the target conjugates were determined in PBS. […] Compounds with Q=O have absorption bands in the green-yellow region while Q=CMe2 derivatives absorb in the red (up to 700 nm). All of the compounds have moderate to high absorption coefficients and significant fluorescence. The spectroscopic details can be found in Table 1. In the table, λmax means absorption maximum; λem means fluorescence emission maximum; s means molar absorption coefficient (at the absorption maximum).

[3] = Uncaging quantum yield determination relative to BODIPY reference; settings: for ε × Φu, uncaging cross-section / quantum efficiency: at the wavelength in parentheses beside each value (538-660 nm); for Φu, uncaging quantum yield: calculated from active agent release; for Φu, uncaging quantum yield / Φdeg, degradation quantum yield: green light irradiation; for Φdeg, degradation quantum yield: calculated from the disappearance of the target conjugate
Description: The relative photochemical quantum yields of the uncaging reactions together with the degradation quantum yields were determined from the results of the quantitative HPLC-UV experiments. In all cases, green light irradiation was used since all target conjugates absorbed in this range as well as the reference BODIPY. The photochemical quantum yields were determined using the following equation:
[formula] • where • Φu is the photochemical quantum yield of the sample • Φu,ref is the photochemical quantum yield of the reference • k is the obtained reaction rate constant of the photoreaction of the sample • kref is the obtained reaction rate constant of the photoreaction of the reference • c is the concentration of the sample • cref is the concentration of the reference • V is the volume of the sample • Vref is the volume of the reference • a is the absorption correction factor of the sample • aref is the absorption correction factor of the reference
The absorption correction factors (a) were determined from the molar absorption coefficients and the green LED emission data obtained by the fluorimeter. […] In other words, the transmittance at each wavelength together with the emission data of the light source can be used to calculate the percentage of absorbed photons according to the following equation:
[formula] • where • T(λ) is the transmittance at each wavelength (determined from the molar absorption coefficients) • F(λ) is the LED emission at each wavelength • λmin, λmax is the LED emission range.
The rate constants of the photoreactions were determined by considering the reactions monoexponential with an initial linear phase (up to 10-20% degradation). First, the concentration vs. HPLC-UV peak were determined for each cargo moieties. […] The rate constants were determined for both the reference (with known Φu) and the sample. For reference, a commonly known BODIPY derivative was used with a similar phenylacetic acid-derived cargo unit (substrate 7 from REF^40), Φu=0.15%:
The calculated photochemical quantum yields together with uncaging cross-sections or quantum efficiencies (product of the molar absorption coefficient at a given wavelength, shown in parentheses and the photochemical quantum yield) are shown in Table 2. In the table, Φu is the photochemical quantum yield of the release; Φdeg is the photochemical quantum yield of degradation; ε×Φu is the uncaging cross-section or quantum efficiency of the release at a given wavelength in parentheses.

[4] = Dark stability experiments (HPLC); settings: water and PBS, 24 hours in the dark
Description: as §1, with “The traces at 195 nm, 254 nm or 369 nm (dependent on the cargo moieties) and at the absorption maxima of the photoremovable protecting groups (530 nm, 570 nm or 640 nm) were compared and the corresponding peaks were integrated and compared to reference calibration sets. The possible photoproducts were identified by their corresponding m/z value and also from the UV/VIS spectra from the DAD-equipped instrument.” left out
Importantly, except in the case of compounds wherein the connecting chemical moiety was a carbonate moiety (i.e., compound 51, FIG. 6f), the target conjugates were stable in water as well as in PBS for 24 hours in the dark. The stability and uncaging rates of several leaving groups was also assessed. […] None of the other model active agents were released in significant quantities, however, after 24-28 hours in the dark (for dark stability data see FIGS. 6a-6h, right side).

**Q.** For `CC(OC(=O)Cc1ccccc1)c1c2ccc(=[N+]3CCCC3)cc-2oc2cc(N3CCCC3)ccc12.[I-]` (stereo not drawn) [Compound 41, 1-(9-(1-(2-phenylacetoxy)ethyl)-6-(pyrrolidin-1-yl)-3H-xanthen-3-ylidene)pyrrolidin-1-ium iodide], which “irradiation time required for 50% release of phenylacetic acid” value ([1]; green light) is on record?
**A.** 180 s

**Q.** What about the “release of phenylacetic acid” value ([1]; orange light, 180 s) of the same compound?
**A.** Approximately 65%

**Q.** What about the “λem (fluorescence emission maximum)” value [2] of the same compound?
**A.** 592 nm

**Q.** And the “λmax (absorption maximum)” value [2]?
**A.** 570 nm

**Q.** And the “ε (molar absorption coefficient)” value [2]?
**A.** 70 000 M^−1cm^−1

**Q.** What about the “ε × Φu, uncaging cross-section / quantum efficiency” value [3] of the same compound?
**A.** 1020 M⁻¹ cm⁻¹

**Q.** And the “Φu, uncaging quantum yield” value [3]?
**A.** 1.5%

**Q.** And the “Φdeg, degradation quantum yield” value [3]?
**A.** 1.9%

**Q.** Which results are given for `CC(OC(=O)Cc1ccccc1)C1=C2C=CC(=[N+]3CCCC3)C=C2C(C)(C)c2cc(N3CCCC3)ccc21.[I-]` (stereo not drawn) [Compound 43, 1-(9,9-dimethyl-10-(1-(2-phenylacetoxy)ethyl)-7-(pyrrolidin-1-yl)anthracen-2 (9H)-ylidene)pyrrolidin-1-ium iodide]?
**A.** increase in the photolysis rate versus π-extended BODIPY derivative ([1]; methanol, 0.1 mM, red light): approximately 5 fold; release of phenylacetic acid ([1]; red light, 120 s): > 70%; λem (fluorescence emission maximum) [2]: 674 nm; λmax (absorption maximum) [2]: 641 nm; ε (molar absorption coefficient) [2]: 86 000 M^−1cm^−1; ε × Φu, uncaging cross-section / quantum efficiency [3]: 1400 M⁻¹ cm⁻¹; Φu, uncaging quantum yield [3]: 1.7%; Φdeg, degradation quantum yield [3]: 2.2%

**Q.** Which decomposition ([1]; red light at 50% power, 30 s) does the source give for `CC(OC(=O)Oc1ccccc1)C1=C2C=CC(=[N+]3CCCC3)C=C2C(C)(C)c2cc(N3CCCC3)ccc21.[I-]` (stereo not drawn) [Compound 51, 1-(9,9-dimethyl-10-(1-((phenoxycarbonyl)oxy)ethyl)-7-(pyrrolidin-1-yl)anthracen-2 (9H)-ylidene)pyrrolidin-1-ium iodide] here?
**A.** > 70%

**Q.** And the “λem (fluorescence emission maximum)” value [2]?
**A.** 676 nm

**Q.** What about the “λmax (absorption maximum)” value [2] of the same compound?
**A.** 643 nm

**Q.** And the “ε (molar absorption coefficient)” value [2]?
**A.** 73 300 M^−1cm^−1

**Q.** What about the dark stability [4] of the same compound?
**A.** reduced and poor

**Q.** What about the “ε × Φu, uncaging cross-section / quantum efficiency” value [3] of the same compound?
**A.** 13 200 M^−1cm^−1

**Q.** What about the “Φu, uncaging quantum yield” value [3] of the same compound?
**A.** 18%

**Q.** What about the “Φdeg, degradation quantum yield” value [3] of the same compound?
**A.** 25%
